Data as given in patent US20070141203A1, “Beverages containing water-soluble vitamin E” (priority 2003, published 2007).

What was measured:
[1] = Turbidity of aqueous dispersions and solutions of vitamin E-containing components in demineralized water (Hach turbidimeter Model Ratio/XR); format: physicochemical; conditions: 150 +/- 5 ppm in demineralized water; for Turbidity (Initially doped water): initial; for Turbidity (6 wks after doping): six weeks at ambient temperature
Protocol: Preparation of aqueous dispersions and solutions of vitamin E-containing components.
(§1) Sample 1: Vitamin E oil (0.15 g) was added to 1000 g of demineralized water. The mixture was homogenized for approximately 60 minutes using a Gifford-Wood homogenizer, Model 1 L form Greerco Corporation. The sample was very cloudy. The turbidity of the sample was measured using a Hach turbidimeter Model Ratio/XR. The turbidity of the demineralized water was also measured prior to addition of the vitamin E. The sample was stored at ambient temperature for six weeks. […] The sample was shaken well and the turbidity measured.
(§2) Sample 2: Vitamin E acetate oil (0.25 g) from Sigma-Aldrich was added to 1681 g of demineralized water. […] The turbidity of the dispersion was measured and then again after storage for six weeks at ambient temperature.
(§3) Sample 3: Vitamin E succinate powder (0.27 g) from Sigma-Aldrich was added to 1792 g of demineralized water. The mixture was homogenized for approximately 60 minutes. […] The turbidity of the dispersion was measured and then again after storage for six weeks at ambient temperature.
(§4) This solution was stirred at ambient temperature using a magnetic stirrer for several minutes. […] The turbidity of the solution was measured and then measured again after storage at ambient temperature for six weeks.
(§5) Sample 6: To 1790 g of demineralized water was added 0.27 g of a mixture consisting of d,l-α-tocopheryl acetate, modified food starch, and silica. This product is commercially available from Roche Vitamins, Inc., under the name “Dry Vitamin E 15% CC”. The aqueous mixture was agitated for about thirty minutes using a magnetic stirrer. […] The turbidity of the solution was measured and then re-measured after storage for six weeks at ambient temperature.
(§6) Sample 7: To 1802 g of demineralized water was added 0.27 g of a mixture consisting of d-α-tocopheryl acetate, Polysorbate 60, and ethyl alcohol. This product is commercially available from ADM under the name “E 230 Clear®”. The mixture was agitated for about ten minutes using a magnetic stirrer. […] The turbidity of the solution was measured and then re-measured after storage for six weeks at ambient temperature.

[2] = Visual appearance / dissolution of vitamin E-containing components in demineralized water, on preparation and during storage; format: physicochemical; conditions: about 150 ppm in demineralized water; for Appearance / dissolution on preparation: after homogenizing or stirring; for Appearance during / after storage: six weeks at ambient temperature
Protocol: as §1, §2, §3, §4, §5, §6

Row | Turbidity (Initially doped water) [1] [NTU] | Turbidity (6 wks after doping) [1] [NTU] | SMILES | Appearance / dissolution on preparation [2] | Appearance during / after storage [2]
1 | 55 | 68 | Cc1c(C)c2c(c(C)c1O)CC[C@@](C)(CCC[C@H](C)CCC[C@H](C)CCCC(C)C)O2 [Sample 1, d-α-Tocopherol] | very cloudy | an immiscible layer of oil formed on top of the water
2 | 52 | 61 | CC(=O)Oc1c(C)c(C)c2c(c1C)CC[C@@](C)(CCC[C@H](C)CCC[C@H](C)CCCC(C)C)O2 [Sample 2, d-α-Tocopherol acetate] | some immiscible oil droplets remained on the surface of the water | Immiscible oil droplets were still on the surface of the water
3 | 8 | 22 | Cc1c(C)c2c(c(C)c1OC(=O)CCC(=O)O)CCC(C)(CCCC(C)CCCC(C)CCCC(C)C)O2 (stereo not drawn) [Sample 3, d,l-α-Tocopherol succinate] | A small amount of powder continued to float on the surface of the water | A small amount of powder continued to reside on the surface of the water
